Earlier results as cited in article PMC9923514 (Journal of chemical information and modeling, 2022).

What was measured:
ZIKV NS5 RdRp = ZIKV NS5 RdRp (Zika virus, UniProt A0A024B7W1); conditions: for IC50: read-out: NS5 RdRp IC50
ZIKV NS2B-NS3pro = ZIKV NS2B-NS3pro (Zika virus, UniProt A0A024B7W1); conditions: read-out: NS2B-NS3pro IC50; allosteric inhibitor
Sequence of ZIKV NS2B-NS3pro (A0A024B7W1 1503-1680): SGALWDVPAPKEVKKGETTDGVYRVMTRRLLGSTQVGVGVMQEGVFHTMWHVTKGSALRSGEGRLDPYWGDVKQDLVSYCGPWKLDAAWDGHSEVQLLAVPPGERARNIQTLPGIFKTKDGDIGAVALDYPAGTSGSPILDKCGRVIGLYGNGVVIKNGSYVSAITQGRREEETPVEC
Sequence of ZIKV NS2B-NS3pro (A0A024B7W1 1373-1502): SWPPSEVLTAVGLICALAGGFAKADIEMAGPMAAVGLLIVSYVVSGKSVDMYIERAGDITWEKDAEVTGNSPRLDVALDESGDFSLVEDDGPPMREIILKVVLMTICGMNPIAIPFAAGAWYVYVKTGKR

Sequence of ZIKV NS5 RdRp (A0A024B7W1 2521-3423): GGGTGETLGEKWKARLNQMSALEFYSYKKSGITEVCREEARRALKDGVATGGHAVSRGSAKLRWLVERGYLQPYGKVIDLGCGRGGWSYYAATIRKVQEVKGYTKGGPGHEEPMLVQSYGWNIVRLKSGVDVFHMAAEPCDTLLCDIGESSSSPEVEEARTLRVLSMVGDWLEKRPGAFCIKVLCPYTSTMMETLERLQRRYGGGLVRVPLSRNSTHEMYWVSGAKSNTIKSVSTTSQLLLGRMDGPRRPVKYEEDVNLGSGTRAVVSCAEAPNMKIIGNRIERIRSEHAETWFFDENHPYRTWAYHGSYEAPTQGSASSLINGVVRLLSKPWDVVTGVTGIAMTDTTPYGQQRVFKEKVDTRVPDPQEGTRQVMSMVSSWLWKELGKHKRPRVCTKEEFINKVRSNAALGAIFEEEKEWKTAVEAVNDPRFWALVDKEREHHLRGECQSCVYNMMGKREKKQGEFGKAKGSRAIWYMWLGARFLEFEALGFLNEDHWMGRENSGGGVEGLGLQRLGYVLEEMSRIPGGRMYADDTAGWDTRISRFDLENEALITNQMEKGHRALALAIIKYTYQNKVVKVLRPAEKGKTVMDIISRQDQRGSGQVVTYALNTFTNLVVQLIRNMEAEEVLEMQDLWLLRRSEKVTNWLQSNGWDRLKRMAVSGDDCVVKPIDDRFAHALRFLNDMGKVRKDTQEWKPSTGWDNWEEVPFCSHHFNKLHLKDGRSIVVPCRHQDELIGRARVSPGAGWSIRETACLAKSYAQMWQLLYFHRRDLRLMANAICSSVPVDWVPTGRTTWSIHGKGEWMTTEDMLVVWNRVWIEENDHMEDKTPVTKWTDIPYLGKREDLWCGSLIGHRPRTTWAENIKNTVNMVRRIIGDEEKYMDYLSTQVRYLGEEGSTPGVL

| IC50 (ZIKV NS5 RdRp) | SMILES | further results |
| --- | --- | --- |
| 94 nM | O=C(NC(=S)Nc1ccc(N2CCN(C(=O)c3cccs3)CC2)cc1)c1sc2ccccc2c1Cl [TBP, 3-chloro-N-[({4-[4-(2-thienylcarbonyl)-1-piperazinyl]phenyl}amino)carbonothioyl]-1-benzothiophene-2-carboxamide] |  |
| 2400 nM | CCCCCOCc1c(Nc2ccc(S(N)(=O)=O)cc2)nc(N2CCOCC2)nc1C(=O)NCCOc1ccccc1 [2-morpholino-5-((pentyloxy)methyl)-N-(2-phenoxyethyl)-6-((4-sulfamoylphenyl)amino)pyrimidine-4-carboxamide] |  |
|  | Nc1cc(N)c(N=Nc2ccc(S(=O)(=O)Nc3nccs3)cc2)cc1N=Nc1ccc(S(=O)(=O)Nc2nccs2)cc1 [NSC86314] | IC50 (ZIKV NS2B-NS3pro): 1120 ± 110 nM |
|  | O[C@H]1[C@H]2c3cc4c(cc3CN3CCC(=C[C@@H]1O)[C@H]23)OCO4 [lycorine] | NS5 RdRp inhibition (ZIKV NS5 RdRp; at 50 μM): 60% |
